Test [1] addresses PKA(h) (Homo sapiens, UniProt P17612). The test is described as follows: Protein kinase inhibition assay. The format is biochemical. The following applies: read-out: percent residual activity of PKA(h). As for the experimental part:
(§1) Certain compounds were tested for activity in protein kinase inhibition assays. All substrates were dissolved and diluted to working stocks in de-ionized water, apart from histone H1 (10× working stock in 20 mM MOPS pH 7.0), PDKtide (10× working stock in 50 mM Tris pH 7.0) ATF2 (which is typically stored at a 20× working stock in 50 mM Tris pH 7.5, 150 mM NaCl, 0.1 mM EGTA, 0.03% Brij-35, 50% glycerol, 1 mM benzamidine, 0.2 mM PMSF and 0.1% R-mercaptoethanol), KKLNRTLSFAEPG (SEQ ID NO:203) and RRRLSFAEPG (SEQ ID NO:204) (50 mM HEPES pH 7.4) and GGEEEEYFELVKKKK (SEQ ID NO:205) (20 mM MOPS pH 7.0). All kinases were pre-diluted to a 10× working concentration prior to addition into the assay. The composition of the dilution buffer for each kinase is detailed below.
(§2) In a final reaction volume of 25 μl, PKA (h) (5-10 mU) is incubated with 8 mM MOPS pH 7.0, 0.2 mM EDTA, 30 μM LRRASLG (SEQ ID NO:209) (Kemptide), 10 mM MgAcetate and [y-33P-ATP] (specific activity approx. 500 cpm/pmol, concentration as required). The reaction is initiated by the addition of the MgATP mix. After incubation for 40 minutes at room temperature, the reaction is stopped by the addition of 5 μl of a 3% phosphoric acid solution. 10 μl of the reaction is then spotted onto a P30 filtermat and washed three times for 5 minutes in 50 mM phosphoric acid and once in methanol prior to drying and scintillation counting.

The target in test [2] is BRK(h) (Homo sapiens, UniProt Q13882). The test is described as follows: Protein kinase inhibition assay. The format is biochemical. The conditions noted are these: read-out: percent residual activity of BRK(h). As for the experimental part:
as §1
as §2, with “μl, BRK” for “μl, PKA”, “EDTA, 5 mM MnCl2, 0.1 mg/ml poly (Glu, Tyr) 4:1,” for “EDTA, 30 μM LRRASLG (SEQ ID NO:209) (Kemptide),”, “and [gamma-33P-ATP]” for “and [y-33P-ATP]”, “a Filtermat A” for “a P30 filtermat”, “in 75” for “in 50”

Test [3] has as its target EphA4(h) (Homo sapiens, UniProt P54764). Description: Protein kinase inhibition assay. It counts as biochemical. The conditions noted are these: read-out: percent residual activity of EphA4(h). The procedure: as §1
as §2, with “μl, EphA4” for “μl, PKA”, “EDTA, 10 mM MnCl2, 0.1 mg/ml poly(Glu, Tyr) 4:1,” for “EDTA, 30 μM LRRASLG (SEQ ID NO:209) (Kemptide),”, “a Filtermat A” for “a P30 filtermat”, “in 75” for “in 50”

The target in test [4] is MRCKβ(h) (Homo sapiens, UniProt Q9Y5S2). The test is described as follows: Protein kinase inhibition assay. The following applies: read-out: percent residual activity of MRCKβ(h). It counts as biochemical. As for the experimental part: as §1
Sequence of MRCKβ(h) (Q9Y5S2 whole entry): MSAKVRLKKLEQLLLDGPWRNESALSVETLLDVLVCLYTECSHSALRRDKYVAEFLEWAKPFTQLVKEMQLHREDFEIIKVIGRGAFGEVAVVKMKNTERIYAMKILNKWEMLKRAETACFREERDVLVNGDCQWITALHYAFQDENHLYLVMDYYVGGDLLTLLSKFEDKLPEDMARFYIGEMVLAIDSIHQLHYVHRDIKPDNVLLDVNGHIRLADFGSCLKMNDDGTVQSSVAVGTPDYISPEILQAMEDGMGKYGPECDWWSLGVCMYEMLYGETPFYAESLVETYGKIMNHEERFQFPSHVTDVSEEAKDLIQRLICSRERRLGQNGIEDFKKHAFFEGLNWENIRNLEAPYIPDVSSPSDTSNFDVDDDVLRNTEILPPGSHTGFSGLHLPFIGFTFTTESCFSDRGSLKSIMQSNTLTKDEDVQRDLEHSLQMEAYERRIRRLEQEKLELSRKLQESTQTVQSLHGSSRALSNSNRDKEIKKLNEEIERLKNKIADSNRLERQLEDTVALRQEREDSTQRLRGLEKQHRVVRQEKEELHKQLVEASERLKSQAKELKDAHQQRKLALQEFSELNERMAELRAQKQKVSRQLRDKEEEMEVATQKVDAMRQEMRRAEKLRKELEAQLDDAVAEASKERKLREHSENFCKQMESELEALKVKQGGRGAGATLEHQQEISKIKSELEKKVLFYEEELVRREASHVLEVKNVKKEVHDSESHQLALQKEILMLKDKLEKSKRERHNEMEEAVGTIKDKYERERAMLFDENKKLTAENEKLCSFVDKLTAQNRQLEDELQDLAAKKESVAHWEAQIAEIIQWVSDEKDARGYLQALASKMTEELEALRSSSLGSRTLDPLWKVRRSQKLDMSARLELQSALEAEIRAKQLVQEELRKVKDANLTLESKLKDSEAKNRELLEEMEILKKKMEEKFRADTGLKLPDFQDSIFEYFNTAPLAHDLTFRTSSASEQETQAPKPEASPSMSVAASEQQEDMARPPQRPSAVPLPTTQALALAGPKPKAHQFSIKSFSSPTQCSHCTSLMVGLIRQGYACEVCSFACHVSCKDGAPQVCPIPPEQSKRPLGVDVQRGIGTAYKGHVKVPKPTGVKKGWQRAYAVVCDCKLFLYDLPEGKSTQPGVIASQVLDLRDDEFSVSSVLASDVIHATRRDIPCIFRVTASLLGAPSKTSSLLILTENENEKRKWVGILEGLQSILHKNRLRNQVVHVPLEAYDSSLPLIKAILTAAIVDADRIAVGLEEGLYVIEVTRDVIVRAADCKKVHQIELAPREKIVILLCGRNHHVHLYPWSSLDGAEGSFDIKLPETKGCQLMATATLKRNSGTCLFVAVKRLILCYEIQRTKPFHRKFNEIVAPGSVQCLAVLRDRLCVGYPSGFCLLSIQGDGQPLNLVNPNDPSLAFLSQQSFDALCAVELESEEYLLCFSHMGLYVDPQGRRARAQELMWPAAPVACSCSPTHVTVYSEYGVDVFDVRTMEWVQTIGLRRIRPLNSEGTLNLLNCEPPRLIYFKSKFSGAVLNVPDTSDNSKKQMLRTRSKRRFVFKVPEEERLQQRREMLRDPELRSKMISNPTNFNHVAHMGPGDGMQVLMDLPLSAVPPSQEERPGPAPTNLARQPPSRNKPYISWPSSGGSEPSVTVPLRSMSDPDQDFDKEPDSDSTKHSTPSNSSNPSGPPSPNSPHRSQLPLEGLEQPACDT
as §2, with “μl, MRCKβ” for “μl, PKA”, “EDTA, 100” for “EDTA, 30”, “μM KKRNRTLTV” for “μM LRRASLG”, “ID NO:219),” for “ID NO:209) (Kemptide),”, “and [gamma-33P-ATP]” for “and [y-33P-ATP]”, “in 75” for “in 50”

The target of test [5] is PKBα(h) (Homo sapiens, UniProt P31749). The test is described as follows: Protein kinase inhibition assay. It counts as biochemical. The following applies: read-out: percent residual activity of PKBα(h). As for the experimental part: as §1
Sequence of PKBα(h) (P31749 whole entry): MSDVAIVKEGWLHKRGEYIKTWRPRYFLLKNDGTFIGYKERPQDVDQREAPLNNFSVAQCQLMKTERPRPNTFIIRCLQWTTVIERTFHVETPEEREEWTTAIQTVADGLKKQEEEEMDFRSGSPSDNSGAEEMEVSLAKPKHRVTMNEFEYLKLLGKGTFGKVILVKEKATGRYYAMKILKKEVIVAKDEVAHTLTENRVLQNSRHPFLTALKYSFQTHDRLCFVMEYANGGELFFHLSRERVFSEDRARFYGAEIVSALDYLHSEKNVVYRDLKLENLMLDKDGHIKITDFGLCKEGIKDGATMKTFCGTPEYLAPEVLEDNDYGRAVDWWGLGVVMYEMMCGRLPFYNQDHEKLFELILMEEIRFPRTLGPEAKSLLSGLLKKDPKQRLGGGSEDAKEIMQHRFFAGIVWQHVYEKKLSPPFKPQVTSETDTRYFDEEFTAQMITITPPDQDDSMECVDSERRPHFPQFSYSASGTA
as §2, with “μl, PKBα” for “μl, PKA”, “μM GRPRTSSFAEGKK” for “μM LRRASLG”, “ID NO:232),” for “ID NO:209) (Kemptide),”, “and [gamma-33P-ATP]” for “and [y-33P-ATP]”, “in 75” for “in 50”

Test [6] deals with HCT116 cells. The test is described as follows: Total (nucleolar) RNA synthesis (3H-uridine incorporation). The format is cell-based. Further details: 3H-uridine incorporation, time course: unit of the concentration uncertain. The procedure:
Effects of compound A-1 and compound B-1 on DNA synthesis, RNA synthesis and protein synthesis were determined in HCT116 cells. HCT116 cells were plated overnight at 100,000 cells per mL. Next day cells were treated with increasing amounts of either compound A-1 or compound B-1 followed by one hour incubation with BrdU label (from a BrdU Cell proliferation Assay Kit, Calbiochem) to monitor DNA synthesis; […] of ^3H-uridine to monitor total RNA synthesis; […] of ^3H-methionine to monitor protein synthesis or plain media to monitor RNA Polymerase II-dependent RNA synthesis. DNA synthesis was assessed using a BrdU-ELISA (BrdU Cell proliferation Assay Kit, Calbiochem). To measure total RNA synthesis, total RNA from treated cells was isolated with a RNease kit (QIAGEN), levels of total RNA were assessed with Ribogreen reagent (Invitrogen) and the newly synthesized tritiated RNA was measured in a scintillation Counter (Perkin Elmer). To measure effects on protein synthesis, cells were lysed in a RIPA buffer, and total protein was precipitated with 10% TCA on a glass-filters. Newly synthesized tritiated protein was measured in a scintillation Counter (Perkin Elmer). Effects of drugs on […] RNA synthesis were assessed by monitoring levels of a c-myc mRNA, which has a relatively short half-life of approximately 30 minutes, by Taqman qRT-PCR (ABI).

The structures appear in SMILES notation.

Sequence of EphA4(h) (P54764 20-986): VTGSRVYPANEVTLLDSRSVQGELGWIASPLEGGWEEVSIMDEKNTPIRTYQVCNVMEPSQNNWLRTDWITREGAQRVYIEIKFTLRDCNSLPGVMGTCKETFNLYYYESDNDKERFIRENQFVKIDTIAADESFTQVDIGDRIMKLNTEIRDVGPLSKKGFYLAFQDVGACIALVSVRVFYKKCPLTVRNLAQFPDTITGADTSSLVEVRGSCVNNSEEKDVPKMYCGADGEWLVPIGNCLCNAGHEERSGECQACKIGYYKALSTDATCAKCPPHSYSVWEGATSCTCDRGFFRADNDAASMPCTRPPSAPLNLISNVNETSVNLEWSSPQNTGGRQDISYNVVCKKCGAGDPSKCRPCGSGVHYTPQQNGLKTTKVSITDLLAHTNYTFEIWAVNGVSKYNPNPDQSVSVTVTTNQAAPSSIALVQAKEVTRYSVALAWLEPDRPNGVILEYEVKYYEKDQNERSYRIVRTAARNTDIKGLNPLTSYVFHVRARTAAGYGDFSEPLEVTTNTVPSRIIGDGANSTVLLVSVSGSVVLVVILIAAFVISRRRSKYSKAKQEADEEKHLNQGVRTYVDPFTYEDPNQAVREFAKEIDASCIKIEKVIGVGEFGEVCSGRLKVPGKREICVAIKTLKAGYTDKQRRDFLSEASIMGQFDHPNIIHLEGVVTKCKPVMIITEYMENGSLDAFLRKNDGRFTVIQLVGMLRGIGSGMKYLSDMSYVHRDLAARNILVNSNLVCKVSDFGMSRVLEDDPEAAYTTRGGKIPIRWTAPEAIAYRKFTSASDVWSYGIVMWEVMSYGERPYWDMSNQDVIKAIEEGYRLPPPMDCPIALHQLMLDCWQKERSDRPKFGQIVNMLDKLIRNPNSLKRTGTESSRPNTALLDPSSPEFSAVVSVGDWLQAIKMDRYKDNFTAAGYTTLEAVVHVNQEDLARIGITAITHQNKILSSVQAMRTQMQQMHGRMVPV
Sequence of BRK(h) (Q13882 whole entry): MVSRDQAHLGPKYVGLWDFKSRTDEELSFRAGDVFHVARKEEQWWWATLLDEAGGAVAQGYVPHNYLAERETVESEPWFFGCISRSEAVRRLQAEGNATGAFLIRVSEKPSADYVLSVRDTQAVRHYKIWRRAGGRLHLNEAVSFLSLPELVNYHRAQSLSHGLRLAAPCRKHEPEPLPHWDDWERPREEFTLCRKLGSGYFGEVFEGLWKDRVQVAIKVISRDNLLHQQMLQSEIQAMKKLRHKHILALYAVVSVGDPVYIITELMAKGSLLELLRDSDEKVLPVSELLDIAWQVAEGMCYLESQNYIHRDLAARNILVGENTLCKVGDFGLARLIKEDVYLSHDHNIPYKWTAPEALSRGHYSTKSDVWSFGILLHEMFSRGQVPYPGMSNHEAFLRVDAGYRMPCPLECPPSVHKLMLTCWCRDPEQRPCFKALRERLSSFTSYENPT

As to `CN1CCCC1CCNC(=O)c1cn2c3c(c(N4CCC(c5cnccn5)C4)c(F)cc3c1=O)Oc1cc3ccccc3cc1-2` (centres unmarked) [Compound A-1], the remaining activity at 2.5 µM was determined as 105% in test [1]; 131% in test [2]; 107% in test [3]; 84% in test [4]; 91% in test [5]. In test [6], this compound registered a concentration that significantly reduced nucleolar RNA synthesis of 1 µM. The “3H-uridine incorporation, time course” value in test [6] (3 (unit uncertain) for 15 min) is “substantially inhibited”.
In the case of `CC(=O)N1CCN(c2ccc3c(=O)c(C(=O)NCCN4CCCC4)c4n(C)c5ccccc5n4c3n2)CC1` [Compound B-1], the remaining activity at 2.5 µM was found to be 97% in test [1]; 98% in test [2]; 134% in test [3]; 102% in test [4]; 103% in test [5]. The concentration that significantly reduced nucleolar RNA synthesis in test [6] was 10 µM. Moreover, the “3H-uridine incorporation, time course” value in test [6] (10 (unit uncertain) for 30 min) was “substantially inhibited”.

Source of the values: patent publication US20070117770A1, “Human ribosomal DNA (rDNA) and ribosomal RNA (rRNA) nucleic acids and uses thereof” (Cylene Pharmaceuticals, Inc., priority 2005, published 2007).
